Converted amounts (≈) assume the structure as drawn. “Also recorded” adds a separate entry of the source. Like-named read-outs stand apart in the source and are kept apart here.
Legend:
[1] = system: vancomycin-resistant Enterococcus faecium ATCC 700221; assay: Time-kill analysis; type: cell-based; conditions: 4 × MIC, 24 hour incubation, 37 °C
E. faecalis = assay: MIC against E. faecalis isolates; conditions: Enterococcus faecalis
[2] = system: human colorectal (HRT-18) cells; assay: MTS cytotoxicity assay; type: cell-based; conditions: for Non-toxic up to (concentration): tested 5-40 μg/mL
[3] = system: E. faecalis and E. faecium; assay: MIC and MBC against strains of E. faecalis and E. faecium; type: cell-based
[4] = human liver microsomes; cited from earlier work
E. coli ΔtolC = assay: Bacterial Cytological Profiling; type: cell-based, Escherichia coli; conditions: 5 × MIC (25 μg/mL), two hours
[5] = system: vancomycin-resistant Enterococcus faecium HM-968; assay: Multi-step resistance selection; type: cell-based; conditions: one-fold increase = MIC x → 2x
[6] = system: vancomycin-resistant Enterococcus faecalis ATCC 51299; assay: Multi-step resistance selection; type: cell-based; conditions: one-fold increase = MIC x → 2x
[7] = polar aminoguanidine headgroup; source not stated; cited from earlier work
human FPPS (HsFPPS) = human FPPS (HsFPPS) (Homo sapiens, UniProt P14324); assay: HsFPPS inhibition assay; type: biochemical; conditions: data not shown
human FPPS (HsFPPS), sequence (P14324 whole entry): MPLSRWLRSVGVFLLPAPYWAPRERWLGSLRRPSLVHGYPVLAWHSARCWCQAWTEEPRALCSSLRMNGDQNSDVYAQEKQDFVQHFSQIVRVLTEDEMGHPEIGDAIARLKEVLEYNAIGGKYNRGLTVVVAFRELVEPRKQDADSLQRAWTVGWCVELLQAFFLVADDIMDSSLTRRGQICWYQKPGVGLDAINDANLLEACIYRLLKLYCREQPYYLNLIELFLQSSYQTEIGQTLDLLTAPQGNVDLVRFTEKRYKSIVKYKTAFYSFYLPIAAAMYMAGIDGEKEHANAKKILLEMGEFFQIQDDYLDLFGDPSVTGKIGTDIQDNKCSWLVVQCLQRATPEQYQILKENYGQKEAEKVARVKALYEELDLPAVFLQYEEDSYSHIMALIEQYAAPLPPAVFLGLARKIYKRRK

[8] = system: vancomycin-resistant Enterococcus faecalis HM-201; assay: Time-kill analysis; type: cell-based; conditions: 4 × MIC, 24 hour incubation, 37 °C
Gram-negative pathogens = assay: MIC against Gram-negative pathogens
E. faecalis NR-31975 = assay: UDP-N-acetylmuramyl-pentapeptide accumulation; type: cell-based, Enterococcus faecalis; conditions: 10 × MIC, 30 minutes
C. elegans AU37 = type: in vivo, Caenorhabditis elegans; conditions: 20 μg/mL, 24 hours exposure
Caco-2 = conditions: polarized cell monolayer; ref not given; cited from earlier work
[9] = system: vancomycin-resistant S. aureus (VRSA); conditions: cited from earlier work
MRSA = conditions: topical; cited from earlier work
[10] = system: vancomycin-resistant Enterococcus faecalis HM-201; assay: C. elegans VRE infection model; type: in vivo, Caenorhabditis elegans; conditions: 20 μg/mL, treated for 18 hours, relative to untreated worms
E. faecalis HM-934 = assay: Re-sensitization of VRE to vancomycin; type: cell-based, Enterococcus faecalis; conditions: for MIC: Enterococcus faecalis; for Fold-improvement in MIC of vancomycin: with ½ × MIC Compound 1
E. faecium ATCC 700221 = assay: Re-sensitization of VRE to vancomycin; type: cell-based, Enterococcus faecium; conditions: for Fold-improvement in MIC of vancomycin: with ½ × MIC Compound 1
E. faecalis HM-201 = assay: Re-sensitization of VRE to vancomycin; type: cell-based, Enterococcus faecalis; conditions: for MIC: Enterococcus faecalis; for Fold-improvement in MIC of vancomycin: with ½ × MIC Compound 1
E. faecium HM-968 = assay: Re-sensitization of VRE to vancomycin; type: cell-based, Enterococcus faecium; conditions: for MIC: Enterococcus faecium; for Fold-improvement in MIC of vancomycin: with ½ × MIC Compound 1
E. faecalis ATCC 51299 = assay: Checkerboard assay; type: cell-based, Enterococcus faecalis; conditions: antibiotic in combination with compound 1
E. faecalis (ATCC 51299) = assay: Re-sensitization of VRE to gentamicin; type: cell-based, Enterococcus faecalis; conditions: sub-inhibitory concentration of 1; data not shown
E. faecium (ATCC 700221) = assay: Re-sensitization of VRE to gentamicin; type: cell-based, Enterococcus faecium; conditions: sub-inhibitory concentration of 1; data not shown
VRE = conditions: administered orally, phase II clinical trial; cited from earlier work
[11] = strains of E. faecalis and E. faecium
[12] = Gram-negative pathogens of Table 1, compound alone
[13] = K. pneumoniae, P. aeruginosa and E. coli, tested alone
[14] = K. pneumoniae, P. aeruginosa and E. coli, with sub-inhibitory colistin

CCCCc1ccc(-c2nc(C)c(/C(C)=N/NC(=N)N)s2)cc1 [Compound 1]
Time-kill result (complete eradication of bacteria) [1]: within two hours | MIC (E. faecalis): 1 to 8 µg/mL (≈ 3.04 to 24.3 µM) | Non-toxic up to (concentration) ([2]; 24 hours incubation): 20 µg/mL | Non-toxic up to (concentration) ([2]; two hours incubation): 20 µg/mL | MBC relative to MIC [3, 11]: equal to or one-fold higher | Affinity to hepatic microsomal enzymes [4]: high affinity to hepatic microsomal enzymes | Cytological effect (E. coli ΔtolC): cells lysed and formed spheroplasts | Shift in MIC over 14 serial passages [5]: no shift in the MIC | Shift in MIC over 14 serial passages [6]: one-fold increase | pKa [7]: ~ 7 | Inhibition of FPPS (human FPPS (HsFPPS)): no inhibition | Time-kill result (complete eradication of bacteria) [8]: within two hours | MIC (Gram-negative pathogens; [12]): 8 to 64 µg/mL (≈ 24.3 to 194 µM) | UDP-N-acetylmuramyl pentapeptide accumulation (E. faecalis NR-31975): large increases | Percent viable worms (C. elegans AU37): All worms survived | Caco-2 permeability, apical to basolateral (Caco-2): limited ability to cross from the apical to basolateral surface | Resensitization of VRSA to vancomycin [9]: resensitizes; also recorded: capable of resensitizing

C/C(=N\NC(=N)N)c1sc(-c2ccc(-c3ccccc3)cc2)nc1C [Compound 2]
Time-kill result (complete eradication of bacteria) [1]: not capable of completely eradicating the bacteria | MIC (E. faecalis): 16 µg/mL (≈ 45.8 µM) | Toxic at (concentration) ([2]; 24 hours incubation): 40 µg/mL | Non-toxic up to (concentration) ([2]; 24 hours incubation): 20 µg/mL | Non-toxic up to (concentration) ([2]; two hours incubation): 40 µg/mL | MBC relative to MIC ([3]; against E. faecium): more than four-fold higher | Shift in MIC over 14 serial passages [5]: one-fold increase | Shift in MIC over 14 serial passages [6]: a one-fold increase in MIC was observed after the sixth passage and an additional two-fold increase was observed after the eleventh passage | pKa [7]: ~ 7 | Time-kill result (complete eradication of bacteria) [8]: within two hours | MIC (Gram-negative pathogens; [12]): > 128 µg/mL | MIC (Gram-negative pathogens; [13]): > 128 µg/mL | MIC (Gram-negative pathogens; [14]): 1 to 4 µg/mL (≈ 2.86 to 11.4 µM) | Resensitization of VRSA to vancomycin [9]: capable of resensitizing

CCCCC#Cc1ccc(-c2nc(C)c(/C(C)=N/NC(=N)N)s2)cc1 [Compound 3]
Time-kill result (complete eradication of bacteria) [1]: four hours | MIC (E. faecalis): 1 to 8 µg/mL (≈ 2.83 to 22.6 µM) | Toxic at (concentration) ([2]; 24 hours incubation): 40 µg/mL | Non-toxic up to (concentration) ([2]; 24 hours incubation): 20 µg/mL | Non-toxic up to (concentration) ([2]; two hours incubation): 40 µg/mL | MBC relative to MIC [3, 11]: equal to or one-fold higher | Shift in MIC over 14 serial passages [5]: no shift in the MIC | Shift in MIC over 14 serial passages [6]: one-fold increase | pKa [7]: ~ 7 | Reduction of MRSA burden in infected skin wounds (MRSA): 96% | Time-kill result (complete eradication of bacteria) [8]: within two hours | MIC (Gram-negative pathogens; [12]): > 128 µg/mL | MIC (Gram-negative pathogens; [13]): > 128 µg/mL | MIC (Gram-negative pathogens; [14]): 1 to 4 µg/mL (≈ 2.83 to 11.3 µM) | Caco-2 permeability, apical to basolateral (Caco-2): limited ability to cross from the apical to basolateral surface

CC[C@H]1OC(=O)[C@H](C)[C@@H](O[C@H]2C[C@@](C)(OC)[C@@H](O)[C@H](C)O2)[C@H](C)[C@@H](O[C@@H]2O[C@H](C)C[C@H](N(C)C)[C@H]2O)[C@](C)(O)C[C@@H](C)C(=O)[C@H](C)[C@@H](O)[C@]1(C)O [Erythromycin, reference compound]
MIC (Gram-negative pathogens): > 128 µg/mL | MIC (Gram-negative pathogens; [14]): 0.5 to 1 µg/mL (≈ 0.681 to 1.36 µM)

CC(=O)NC[C@H]1CN(c2ccc(N3CCOCC3)c(F)c2)C(=O)O1 [Linezolid, reference compound]
Time-kill result (complete eradication of bacteria) [1]: not able to generate a 10^3 × reduction in VRE CFU over 24 hours | MBC relative to MIC [3, 11]: more than four-fold higher | Shift in MIC over 14 serial passages [5]: one-fold increase | Shift in MIC over 14 serial passages [6]: No increase in MIC | Time-kill result (complete eradication of bacteria) [8]: not able to generate a 10^3 × reduction in VRE CFU over 24 hours | Decrease in VRE burden in infected worms [10]: unable to reduce the burden of VRE

CN[C@H](CC(C)C)C(=O)N[C@H]1C(=O)N[C@@H](CC(N)=O)C(=O)N[C@H]2C(=O)N[C@H]3C(=O)N[C@H](C(=O)N[C@H](C(=O)O)c4cc(O)cc(O)c4-c4cc3ccc4O)[C@H](O)c3ccc(c(Cl)c3)Oc3cc2cc(c3O[C@@H]2O[C@H](CO)[C@@H](O)[C@H](O)[C@H]2O[C@H]2C[C@](C)(N)[C@H](O)[C@H](C)O2)Oc2ccc(cc2Cl)[C@H]1O [Vancomycin]
MIC (E. faecalis HM-934; HM934, read-out: MIC of vancomycin, + ½ × MIC Compound 1): > 128 µg/mL | MIC (E. faecalis HM-934; HM934, read-out: MIC of vancomycin, vancomycin alone): > 512 µg/mL | Fold-improvement in MIC of vancomycin (E. faecalis HM-934): No change | Fold-improvement in MIC of vancomycin (E. faecalis HM-934; listed as vancomycin): no resensitization | UDP-N-acetylmuramyl pentapeptide accumulation (E. faecalis NR-31975): large increases | MIC (E. faecium ATCC 700221; Enterococcus faecium, ATCC700221, read-out: MIC of vancomycin, vancomycin alone): 256 µg/mL | Fold-improvement in MIC of vancomycin (E. faecium ATCC 700221): 256-fold | Fold-improvement in MIC of vancomycin (E. faecium ATCC 700221; listed as vancomycin): 256 fold | MIC (E. faecalis HM-201; HM201, read-out: MIC of vancomycin, + ½ × MIC Compound 1): > 128 µg/mL | MIC (E. faecalis HM-201; HM201, read-out: MIC of vancomycin, vancomycin alone): 512 µg/mL | Fold-improvement in MIC of vancomycin (E. faecalis HM-201): No change | Fold-improvement in MIC of vancomycin (E. faecalis HM-201; listed as vancomycin): no resensitization | MIC (E. faecium HM-968; HM968, read-out: MIC of vancomycin, + ½ × MIC Compound 1): > 128 µg/mL | MIC (E. faecium HM-968; HM968, read-out: MIC of vancomycin, vancomycin alone): 1020 µg/mL | Fold-improvement in MIC of vancomycin (E. faecium HM-968): No change | Fold-improvement in MIC of vancomycin (E. faecium HM-968; listed as vancomycin): no resensitization

CC1(C)S[C@@H]2[C@H](NC(=O)[C@H](N)c3ccccc3)C(=O)N2[C@H]1C(=O)O [ampicillin]
FIC index (E. faecalis ATCC 51299): 3.00

O=C(O)c1cn(C2CC2)c2cc(N3CCNCC3)c(F)cc2c1=O [ciprofloxacin]
FIC index (E. faecalis ATCC 51299): 0.50

C[C@H]1c2cccc(O)c2C(=O)C2=C(O)[C@]3(O)C(=O)C(C(N)=O)=C(O)[C@@H](N(C)C)[C@@H]3[C@@H](O)[C@@H]21 [doxycycline]
FIC index (E. faecalis ATCC 51299): 2.00

CNC(C)C1CCC(N)C(OC2C(N)CC(N)C(OC3OCC(C)(O)C(NC)C3O)C2O)O1 (stereo not shown) [gentamicin]
Resensitization to gentamicin (E. faecalis (ATCC 51299)): unable to resensitize | Resensitization to gentamicin (E. faecium (ATCC 700221)): unable to resensitize

Ramoplanin
Patients with suppressed gastrointestinal colonization of VRE (VRE): up to 90%
